The text below walks through data of patent US12398400B2, “Herbicide-resistant acetyl-CoA carboxylase (ACC) mutant and use thereof” (priority 2020, dated 2025).

Common to all, as to format: in vivo
In experiment [1] the test system is C2186R edited Oryza sativa plants. Briefly: Herbicide spray tolerance of C2186R edited plants. Conditions: for tolerance compared with wild-type control: 5 g.a.i./mu, 14 d later, FIG. 6. How it is done:
(§1) Multiple Oryza sativa varieties such as Wanzhijing 006, Nanjing 9108, and Jiahe 218 were used as experimental materials. The base editor constructed above was transformed into the Oryza sativa plants by A. tumefaciens to obtain gene-edited plants. Emerging seedlings were screened with a sethoxydim-containing medium at a concentration of SET-2: 2 mg/L. Or, edited seedlings were planted in a cultivation room. The edited seedlings and the control plants were sprayed with sethoxydim at a concentration of 0.5 g/L (corresponding to a field application dosage of 10 g. a.i/mu), and a survival rate of the seedlings was counted 10 d later.
(§2) Through screening cultivation, herbicide-resistant plants were screened out on a sethoxydim-containing medium. […] In addition, herbicide-resistant plants were also screened out in the cultivation room.
(§3) The I1879V and C2186R edited Oryza sativa plants obtained in Example 1 were planted, and the resistance to other types of herbicides was tested, such as phenthodim, quizalofop-p, fenoxaprop-p-ethyl, clethodim, haloxyfop-p-methyl, fenoxaprop, and butyclofen.
(§4) Dibble Oryza sativa plants at the seedling stage in the field were selected and sprayed with phenthodim at 20 g.a.i./mu (4 times a recommended dosage), and then results were observed.
(§5) Quizalofop-p and fenoxaprop-p-ethyl were each applied at 5 g.a.i./mu to I1879V edited plants and C2186R edited plants, and results were observed 14 d later.

Experiment [2] concerns I1879V edited Oryza sativa plants. Briefly: Herbicide spray tolerance of I1879V edited plants. The note with it: for tolerance compared with wild-type control: 5 g.a.i./mu, FIG. 6; for phytotoxicity observed: field seedlings. How it is done:
as §1
(§6) For I1879V edited Oryza sativa plants, the dosage of sethoxydim was further increased to a corresponding field application dosage of 15 g. a.i/mu. The dosage of sethoxydim was further increased to 30 g. a.i/mu.
as §3, §4, §5
The tolerance of the I1879V edited plants to clethodim, haloxyfop-p-methyl, fenoxaprop, and butyclofen was tested, where the clethodim, haloxyfop-p-methyl, and fenoxaprop were each applied at concentrations of 5 g.a.i./mu (1×) and 10 g.a.i./mu (2×); and the butyclofen was applied at concentrations of 10 g.a.i./mu (1×) and 20 g.a.i./mu (2×). After the herbicide was applied for 20 d, the growth of the edited plants was observed and the herbicide resistance of the edited plants was counted.

Experiment [3] has the same test system. Kind of experiment: Screening of emerging seedlings on sethoxydim-containing medium. The note with it: 2 mg/L, FIG. 2. How it is done: as §1, §2
In experiment [4] the test system is wild-type Oryza sativa plants. Briefly: Herbicide spray on wild-type control plants. The note with it: for phytotoxicity observed: field seedlings. How it is done: as §1, §6, §4
The mark [5] stands for this setting: 15 g. a.i/mu, 14 d later, FIG. 4.
Setting [6] is: 20 g.a.i./mu (4 times recommended dosage), 7 d after spraying.
[7] abbreviates: 20 g.a.i./mu, 20 d after application, FIG. 5.

Consider `C[C@@H](Oc1ccc(Oc2cnc3cc(Cl)ccc3n2)cc1)C(=O)O` [Quizalofop-p, quizalofop-p], for which the “tolerance compared with wild-type control” value in experiment [1] and in experiment [2] (14 d later) was “failed to produce tolerance” in each case.

Turning to `CCOC(=O)[C@@H](C)Oc1ccc(Oc2nc3ccc(Cl)cc3o2)cc1` [fenoxaprop-p-ethyl], the “tolerance compared with wild-type control” value in experiment [1] and in experiment [2] (14 d later) was “failed to produce tolerance” throughout.

For `CCC/C(=N\OCC)C1=C(O)CC(CC(C)SCC)CC1=O` (stereo not drawn) [sethoxydim], the “herbicide tolerance of edited seedlings after spraying” value in experiment [1] (sprayed at 0.5 g/L (field application dosage 10 g. a.i/mu), 10 d, FIG. 3) is on record as “able to tolerate the herbicide”. Also, the “herbicide tolerance of edited seedlings on herbicide-containing medium” value in experiment [3] is “able to tolerate the herbicide”. Besides, in experiment [2] (setting [5]), the “growth of edited material after herbicide” value is “grew normally”. The phytotoxicity entry in experiment [2] (30 g. a.i/mu, 20 d) is “about 30%”. The “state of control plants after herbicide” value in experiment [4] (setting [5]) was “obviously yellow and dead”. Moreover, the “survival of wild-type plants after herbicide” value in experiment [4] (30 g. a.i/mu, 20 d) is given as “all wild-type plants died”.

As for phenthodim, the phytotoxicity observed entry was “obvious phytotoxicity” in experiment [1] (20 g.a.i./mu, field seedlings); “no visible phytotoxicity” in experiment [2] (setting [6]); “no obvious phytotoxicity” in experiment [2] (setting [7]); “obvious chlorosis and spots” in experiment [4] (setting [6]); “serious phytotoxicity” in experiment [4] (setting [7]).
